According to patent publication US12319640B2, “Cyclic diones as herbicidal compounds” (SYNGENTA CROP PROTECTION AG, priority 2019, dated 2025):

What was measured:
Test in all cases: Glasshouse herbicide test, pre- and post-emergence
Type in all cases: in vivo
[1] = tested on: Alopecurus myosuroides (ALOMY); conditions: 250 g/h, evaluated after 13 days, five-point scale; for percentage damage caused to the plant, ALOMY POST: post-emergence; for percentage damage caused to the plant, ALOMY PRE: pre-emergence
In short: (§1)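 Percentage plant damage, scored 13 days after treatment as 5=80-100%, 4=60-79%, 3=40-59%, 2=20-39%, 1=0-19%. Spray of 250 g/h in acetone/water 50:50 plus 0.5% Tween 20 went on one day (pre-emergence) or eight days (post-emergence) after sowing.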

Avena fatua (AVEFA) = conditions: 250 g/h, evaluated after 13 days, five-point scale; for percentage damage caused to the plant, AVEFA POST: post-emergence; for percentage damage caused to the plant, AVEFA PRE: pre-emergence
In short: as §1

[2] = tested on: Echinochloa crus-galli (ECHCG); conditions: 250 g/h, evaluated after 13 days, five-point scale; for percentage damage caused to the plant, ECHCG POST: post-emergence; for percentage damage caused to the plant, ECHCG PRE: pre-emergence
In short: as §1

Lolium perenne (LOLPE) = conditions: 250 g/h, evaluated after 13 days, five-point scale; for percentage damage caused to the plant, LOLPE POST: post-emergence; for percentage damage caused to the plant, LOLPE PRE: pre-emergence
In short: as §1

Setaria faberi (SETFA) = conditions: 250 g/h, evaluated after 13 days, five-point scale; for percentage damage caused to the plant, SETFA POST: post-emergence; for percentage damage caused to the plant, SETFA PRE: pre-emergence
In short: as §1

Structure (SMILES)	percentage damage caused to the plant, ALOMY POST [1]	percentage damage caused to the plant, ALOMY PRE [1]	percentage damage caused to the plant, AVEFA POST (Avena fatua (AVEFA))	percentage damage caused to the plant, AVEFA PRE (Avena fatua (AVEFA))	percentage damage caused to the plant, ECHCG POST [2]	percentage damage caused to the plant, ECHCG PRE [2]	percentage damage caused to the plant, LOLPE POST (Lolium perenne (LOLPE))	percentage damage caused to the plant, LOLPE PRE (Lolium perenne (LOLPE))	percentage damage caused to the plant, SETFA POST (Setaria faberi (SETFA))	percentage damage caused to the plant, SETFA PRE (Setaria faberi (SETFA))
CC#Cc1cc(C)c(C2C(=O)CC3(CCC(NC(=O)C4COCCO4)CC3)CC2=O)c(C)c1 (stereo not drawn) [Compound 2.009]	4 (4=60-79%)	4 (4=60-79%)	5 (5=80-100%)	4 (4=60-79%)	5 (5=80-100%)	5 (5=80-100%)	5 (5=80-100%)	5 (5=80-100%)	5 (5=80-100%)	5 (5=80-100%)
CC#Cc1cc(C)c(C2C(=O)CC3(CCC(NC(=O)CC#N)CC3)CC2=O)c(C)c1 (stereo not drawn) [Compound 2.010]	5 (5=80-100%)	5 (5=80-100%)	5 (5=80-100%)	5 (5=80-100%)	5 (5=80-100%)	5 (5=80-100%)	5 (5=80-100%)	5 (5=80-100%)	5 (5=80-100%)	5 (5=80-100%)
CC#Cc1cc(C)c(C2C(=O)CC3(CCC(NC(=O)C(F)F)CC3)CC2=O)c(C)c1 (stereo not drawn) [Compound 2.011]	5 (5=80-100%)	5 (5=80-100%)	5 (5=80-100%)	5 (5=80-100%)	5 (5=80-100%)	5 (5=80-100%)	5 (5=80-100%)	5 (5=80-100%)	5 (5=80-100%)	5 (5=80-100%)
CC#Cc1cc(C)c(C2C(=O)CC3(CCC(NC(=O)Nc4ccccn4)CC3)CC2=O)c(C)c1 (stereo not drawn) [Compound 2.012]	4 (4=60-79%)	4 (4=60-79%)	5 (5=80-100%)	3 (3=40-59%)	4 (4=60-79%)	4 (4=60-79%)	5 (5=80-100%)	5 (5=80-100%)	4 (4=60-79%)	4 (4=60-79%)
CC#Cc1cc(C)c(C2C(=O)CC3(CCC(NC(=O)CCC#N)CC3)CC2=O)c(C)c1 (stereo not drawn) [Compound 2.013]	5 (5=80-100%)	3 (3=40-59%)	5 (5=80-100%)	5 (5=80-100%)	5 (5=80-100%)	5 (5=80-100%)	5 (5=80-100%)	5 (5=80-100%)	5 (5=80-100%)	5 (5=80-100%)
CC#Cc1cc(C)c(C2C(=O)CC3(CCC(NC(=O)c4ccc(OC)nn4)CC3)CC2=O)c(C)c1 (stereo not drawn) [Compound 2.014]	5 (5=80-100%)	5 (5=80-100%)	5 (5=80-100%)	5 (5=80-100%)	5 (5=80-100%)	5 (5=80-100%)	5 (5=80-100%)	5 (5=80-100%)	5 (5=80-100%)	5 (5=80-100%)
CC#Cc1cc(C)c(C2C(=O)CC3(CCC(NC(=O)c4nccnc4C)CC3)CC2=O)c(C)c1 (stereo not drawn) [Compound 2.015]	5 (5=80-100%)	4 (4=60-79%)	5 (5=80-100%)	5 (5=80-100%)	5 (5=80-100%)	5 (5=80-100%)	5 (5=80-100%)	5 (5=80-100%)	5 (5=80-100%)	5 (5=80-100%)
CC#Cc1cc(C)c(C2C(=O)CC3(CCC(NC(=O)c4cnco4)CC3)CC2=O)c(C)c1 (stereo not drawn) [Compound 2.016]	4 (4=60-79%)	3 (3=40-59%)	5 (5=80-100%)	4 (4=60-79%)	5 (5=80-100%)	5 (5=80-100%)	5 (5=80-100%)	5 (5=80-100%)	5 (5=80-100%)	5 (5=80-100%)
CC#Cc1cc(C)c(C2C(=O)CC3(CCC(NC(=O)[C@H](C)O)CC3)CC2=O)c(C)c1 (stereo partly drawn) [Compound 2.017]	5 (5=80-100%)	4 (4=60-79%)	5 (5=80-100%)	4 (4=60-79%)	5 (5=80-100%)	5 (5=80-100%)	5 (5=80-100%)	4 (4=60-79%)	5 (5=80-100%)	5 (5=80-100%)
CC#Cc1cc(C)c(C2C(=O)CC3(CCC(NC(=O)c4ccnc(F)c4)CC3)CC2=O)c(C)c1 (stereo not drawn) [Compound 2.018]	5 (5=80-100%)	4 (4=60-79%)	5 (5=80-100%)	5 (5=80-100%)	5 (5=80-100%)	5 (5=80-100%)	5 (5=80-100%)	5 (5=80-100%)	5 (5=80-100%)	5 (5=80-100%)
CC#Cc1cc(C)c(C2C(=O)CC3(CCC(NC(=O)c4ccccc4)CC3)CC2=O)c(C)c1 (stereo not drawn) [Compound 2.019]	5 (5=80-100%)	5 (5=80-100%)	5 (5=80-100%)	5 (5=80-100%)	5 (5=80-100%)	5 (5=80-100%)	5 (5=80-100%)	5 (5=80-100%)	5 (5=80-100%)	5 (5=80-100%)
CC#Cc1cc(C)c(C2C(=O)CC3(CCC(NC(=O)COC)CC3)CC2=O)c(C)c1 (stereo not drawn) [Compound 2.020]	5 (5=80-100%)	5 (5=80-100%)	5 (5=80-100%)	5 (5=80-100%)	5 (5=80-100%)	5 (5=80-100%)	5 (5=80-100%)	5 (5=80-100%)	5 (5=80-100%)	5 (5=80-100%)
